The subject of this test is platelet aggregation induced by ADP. Nature of the test: Platelet aggregation induced by ADP in platelet-rich plasma of rats drawn 2 hours after dosing (NJ4 Semi-Platelet Aggregation Analyzer). The format is in vivo. To be noted: male Wistar rats, 3 mg/kg as suspension in 0.25 wt % CMC, blood drawn 2 hours after administration, negative control 61.22 ± 4.73, * P < 0.001. An excerpt: The maximum aggregation rate of irreversible condensed phase can be used to evaluate the effect of subject products on coagulation function. The experiment used NJ4 type Semi-Platelet Aggregation Analyzer of precil company, to survey the inhibitory effect of the subject products provided by Tasly Holding Group. Co. Ltd on platelet aggregation. • Materials • Animals: male Wistar rats, body weight 230-250 g, bought from Beijing Vital River Laboratory • Animal Technology Co. Ltd., animal certification number:SCXK ( ? ) 2007-0001. • Reagents: ADP, bought from Sigma company; clopidogrel was prepared referring to the method in Chinese Journal of Medicinal Chemistry 2007, 17 (3) 163-165; prasugrel was prepared referring to the method in Chinese Journal of Pharmaceuticals 2012, 43 (8) 647-649; vicagrel was prepared referring to the method in Journal of Medicinal Chemistry, 2012, 55(7), 3342-3352. • Subject products: 7 subject products were all provided by Tasly Holding Group. Co. Ltd. • Administration dosage: subject products were suspensed in CMC in a concentration of 0.25 wt %, were administered in a dosage of 3 mg/kg body weight, the administration volume was 2 ml.
2 hours after administering drugs to the rats, anesthesia with mebubarbital, draw blood from abdominal aorta, anticoagulation with sodium citrate 1:9. Obtained platelet-rich plasma and platelet-poor plasma by centrifugation, the volume ratio of the two was platelet-poor plasma:platelet-rich plasma=3:1.

SMILES strings stand for the structures.

In the case of `COC(=O)[C@H](c1ccccc1Cl)N1CCc2sccc2C1` [Clopidogrel, reference compound], the “The maximum aggregation rate of platelet irreversible condensed phase” value (“The maximum aggregation rate” below) is 46.77 ± 8.28*.

With `CC(=O)Oc1cc2c(s1)CCN(C(C(=O)C1CC1)c1ccccc1F)C2` (stereo not drawn) [Prasugrel, prasugrel, reference compound], the “The maximum aggregation rate” value was 20.72 ± 18.84*.

Consider `COC(=O)[C@H](c1ccccc1Cl)N1CCc2sc(OP(=O)(OC)OC)cc2C1` [TSC-1], for which the “The maximum aggregation rate” value was 45.8 ± 3.55*.

In the case of `CCOP(=O)(OCC)Oc1cc2c(s1)CCN([C@H](C(=O)OC)c1ccccc1Cl)C2` [TSC-2], the “The maximum aggregation rate” value was 41.7 ± 7.43*.

As to `COC(=O)[C@H](c1ccccc1Cl)N1CCc2sc(OP(=O)(OC(C)C)OC(C)C)cc2C1` [TSC-3], the “The maximum aggregation rate” value was 38.7 ± 4.27*.

`COC(=O)[C@H](c1ccccc1Cl)N1CCc2sc(OP(=O)(Oc3ccccc3)Oc3ccccc3)cc2C1` [TSC-4]: the “The maximum aggregation rate” value is listed as 46.5 ± 8.16*.

With `COC(=O)[C@H](c1ccccc1Cl)N1CCc2sc(OP(=O)(OCC(Cl)(Cl)Cl)OCC(Cl)(Cl)Cl)cc2C1` [TSC-5], the “The maximum aggregation rate” value is reported as 39.1 ± 5.66*.

As for `COC(=O)[C@H](c1ccccc1Cl)N1CCc2sc(OP(=O)(O)O)cc2C1` [TSC-6], the “The maximum aggregation rate” value is 29.6 ± 5.33*.

Regarding `COC(=O)[C@H](c1ccccc1Cl)N1CCc2sc(OCOP(=O)(OC(C)(C)C)OC(C)(C)C)cc2C1` [TSC-7], the “The maximum aggregation rate” value is reported as 39.2 ± 6.16*.

As to `COC(=O)[C@H](c1ccccc1Cl)N1CCc2sc(OCOP(=O)(O)O)cc2C1` [TSC-8], the “The maximum aggregation rate” value was 32.7 ± 9.21*.

Regarding `COC(=O)[C@H](c1ccccc1Cl)N1CCc2sc(OS(=O)(=O)O)cc2C1` [TSC-9], the “The maximum aggregation rate” value is listed as 25.7 ± 3.25*.

In the case of `COC(=O)[C@H](c1ccccc1Cl)N1CCc2sc(OC(C)=O)cc2C1` [Vicagrel, vicagrel, reference compound], the “The maximum aggregation rate” value is given as 32.36 ± 5.14*.

These data come from US20210179632A1, “THIENOPIPERIDINE DERIVATIVE AND USE THEREOF” (JIANGSU TASLY DIYI PHARMACEUTICAL CO. LTD., priority 2013, published 2021).
